Reference: publication PMC11475281, “A Novel Liver Cancer-Selective Histone Deacetylase Inhibitor Is Effective against Hepatocellular Carcinoma and Induces Durable Responses with Immunotherapy” (ACS Pharmacology & Translational Science, 2024)

What was measured:
Hep-G2 HCC cells = assay: Cell cycle analysis by flow cytometry; type: cell-based, human; conditions: 48 h
Protocol: To determine if the HCC cell selective cytotoxicity of STR-V-53 results from its perturbation of the cell cycle pattern, we evaluated the effect of STR-V-53 on the cycle progression by flow cytometry using SAHA as a control (Figure 4).
Figure 4 Effect of STR-V-53 treatment on HCC cell cycle progression. (a–c) Human Hep-G2 HCC cells were cultured until 80% confluence in a 10 cm Petri dish. The cells were serum-starved overnight before drug treatment. Then, the cells were treated with 10 mL of 0.1% DMSO medium and 0.1% DMSO solution of SAHA (5 μM) or STR-V-53 (15 μM) for 48 h. Control group (ai); SAHA (5 μM)-treated group (aii), and STR-V-53 (15 μM)-treated group (aiii and biii). (c) Quantification of the cell cycle data from two independent experiments. Bars show mean plus standard deviation; *P < 0.0332; **P < 0.0021; ***P < 0.0002; ****P < 0.00001.
MIDI 4-20% gel (Biorad, cat. 5671093) and ran at 150 V for 70 min. […] After washing with TBS-T 3x5 mins, bands were quantified using the Odyssey CLx Image system.
Hep-G2 or VERO cells were seeded (2500 to 4,000 counts/well) into 96-well plates, in which each well contains 100 µL media. […] After 2.5-4 h incubation, the plates were read using a multiplate reader at 490 nm. […]
Then cells were treated with another 500 µL of 100 ug/mL PI staining at room temperature for 30 min. The cell cycle was analyzed with BD FACS Aria Illu analyzer, and the data were […]

GLUT-2 = GLUT-2 uptake experiment (phloretin blockade, MTS); type: cell-based; conditions: African green monkey, VERO cells, with phloretin 25 µM, Pre-treated with 25 μM Ph, read-out: VERO Cell Viability %
Protocol: We observed that Ph selectively mitigated the cytotoxicity of STR-V-53 against the Hep-G2 cell line with no apparent effect on the cytotoxicity of SAHA (Figure 2a). […] This matches our expectation because Hep-G2 cells overexpress GLUT-2 while VERO has limited expression of GLUT-2.[26] […]
Hep-G2 or VERO cells were seeded (2500 to 4,000 counts/well) into 96-well plates, in which each well contains 100 µL media. The cells were cultured overnight in the respective media described in the cell culture section above. On day 2, the cells were treated with 25 µM Phloretin for 24 h. On day 3, 200x stock solutions of STR-V-53 and SAHA were used to prepare 2x treatment solution by adding 1% stock solution in the media. Then, without removal of the media in 96-well plates, the same volumes of drug as the media were added directly to the wells with gentle pipetting to reach 1x drug solution with 25 µM Ph. After another 72 h, the media were removed, and new media (100 µL) added to the wells. MTS solution (20 µL) was added to each well. After 2.5-4 h incubation, the plates were read using a multiplate reader at 490 nm. The data were processed using GraphPad Prism 8. […]

Row | SMILES | Cell cycle progression (Hep-G2 HCC cells; 5 μM) | viability at 72 h, 6.5 µM (GLUT-2; 6.5 μM) [%] | viability at 72 h, 12.5 µM (GLUT-2; 12.5 μM) [%] | Cell cycle progression (Hep-G2 HCC cells; 15 μM) | viability at 72 h, 75 µM (GLUT-2; 75μM) [%] | viability at 72 h, 100 µM (GLUT-2; 100μM) [%]
1 | O=C(CCCCCCC(=O)Nc1ccccc1)NO [SAHA, vorinostat, reference compound] | significant S phase arrest | 87.2 | 7.5 |  |  | 
2 | O=C(CCCCCCn1cc(-c2ccc(O[C@H]3O[C@H](CO)[C@@H](O)[C@H](O)[C@H]3O)cc2)nn1)NO [STR-V-53] |  |  |  | significant S phase arrest | 100 | 75.9
